The source of these data is ChEMBL document CHEMBL3352659, “Indolinone-based acetylcholinesterase inhibitors: synthesis, biological activity and molecular modeling” (Eur J Med Chem, 2014).

A short description of assay [1]: Selectivity index, ratio of IC50 for equine serum BuChE to IC50 for electric eel AChE.
The target of assay [2] is T1, Acetylcholinesterase (Electrophorus electricus, UniProt O42275). The assay can be described thus: Inhibition of electric eel AChE using acetylthiocholine iodide substrate by Ellman method based spectrophotometry.
The target of a further assay is Cholinesterase (Equus caballus, UniProt P81908). As to the kind of experiment: Inhibition of equine serum BuChE using butyrylthiocholine iodide substrate by Ellman method based spectrophotometry.
In assay [3] the target is T1, Acetylcholinesterase. The assay can be described thus: Mixed type inhibition of electric eel AChE using acetylthiocholine iodide substrate by Lineweaver-Burk plot analysis.

T1 sequence (O42275 whole entry): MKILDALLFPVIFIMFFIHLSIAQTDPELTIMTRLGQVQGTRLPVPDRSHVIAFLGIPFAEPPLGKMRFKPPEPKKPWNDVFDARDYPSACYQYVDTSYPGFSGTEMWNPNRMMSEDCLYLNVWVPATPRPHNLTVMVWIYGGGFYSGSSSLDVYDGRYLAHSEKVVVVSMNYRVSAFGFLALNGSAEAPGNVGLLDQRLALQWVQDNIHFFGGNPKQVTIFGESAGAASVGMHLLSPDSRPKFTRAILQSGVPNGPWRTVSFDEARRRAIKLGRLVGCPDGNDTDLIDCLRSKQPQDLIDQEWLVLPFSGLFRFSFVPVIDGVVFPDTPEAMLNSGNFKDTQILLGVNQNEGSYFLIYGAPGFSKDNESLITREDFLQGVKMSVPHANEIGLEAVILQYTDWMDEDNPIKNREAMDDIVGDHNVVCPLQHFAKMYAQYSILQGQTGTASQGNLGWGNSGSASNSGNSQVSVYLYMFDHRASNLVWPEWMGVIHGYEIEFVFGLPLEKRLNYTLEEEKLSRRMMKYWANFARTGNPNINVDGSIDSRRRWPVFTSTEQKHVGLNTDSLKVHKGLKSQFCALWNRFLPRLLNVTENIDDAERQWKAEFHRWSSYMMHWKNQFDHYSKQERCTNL
Chain of Cholinesterase (P81908 whole entry): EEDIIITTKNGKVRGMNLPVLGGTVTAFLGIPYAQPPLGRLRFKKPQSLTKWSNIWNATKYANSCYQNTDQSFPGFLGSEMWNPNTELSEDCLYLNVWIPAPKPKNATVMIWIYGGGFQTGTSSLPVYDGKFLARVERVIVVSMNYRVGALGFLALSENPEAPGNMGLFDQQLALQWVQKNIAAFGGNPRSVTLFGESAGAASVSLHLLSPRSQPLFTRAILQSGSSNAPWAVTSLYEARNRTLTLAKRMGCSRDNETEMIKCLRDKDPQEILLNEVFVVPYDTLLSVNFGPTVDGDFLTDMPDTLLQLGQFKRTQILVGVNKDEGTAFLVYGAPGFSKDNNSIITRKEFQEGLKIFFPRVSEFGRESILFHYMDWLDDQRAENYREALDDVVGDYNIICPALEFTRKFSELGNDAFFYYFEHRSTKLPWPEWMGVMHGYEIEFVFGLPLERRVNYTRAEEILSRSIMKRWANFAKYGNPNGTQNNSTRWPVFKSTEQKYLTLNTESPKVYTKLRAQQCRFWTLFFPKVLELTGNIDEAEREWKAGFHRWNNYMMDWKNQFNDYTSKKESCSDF

For the compound `O=C1Nc2ccccc2/C1=C\c1cc[n+](Cc2ccc([N+](=O)[O-])cc2)cc1`, in assay [1], the Ratio IC50 worked out at 10. In addition, the results for the half-inhibitory concentration (IC50) on Acetylcholinesterase [2] and at Cholinesterase were 0.744 µM and 7.5 µM, respectively.
The corresponding values for `COc1cccc(C[n+]2ccc(/C=C3/C(=O)Nc4ccccc43)cc2)c1` are 424, 0.0066 µM and 2.8 µM.
For `O=C1Nc2ccccc2/C1=C\c1cc[n+](Cc2c(F)cccc2Cl)cc1`, the Ratio IC50 in assay [1] turned out to be 488. Moreover, the values for the IC50 against Acetylcholinesterase [2] and at Cholinesterase were 0.0041 µM and 2 µM, respectively.
As to `Cc1ccccc1C[n+]1ccc(/C=C2/C(=O)Nc3ccccc32)cc1`, the Ratio IC50 in assay [1] stood at 57.9. Moreover, the IC50 against Acetylcholinesterase [2] is 0.0153 µM; on Cholinesterase, 0.887 µM.
In the same order, the values of `O=C1Nc2ccccc2/C1=C\c1cc[n+](Cc2ccc(Cl)cc2)cc1` are 3.73, 0.59 µM and 2.2 µM.
The corresponding values for `O=C1Nc2ccccc2/C1=C\c1cc[n+](Cc2cccc(Cl)c2)cc1` are 276, 0.0049 µM and 1.35 µM.
As for `O=C1Nc2ccccc2/C1=C\c1cc[n+](Cc2ccccc2Cl)cc1`, the Ratio IC50 in assay [1] was 3110. Also, the values for the IC50 against Acetylcholinesterase [2] and on Cholinesterase were 0.00044 µM and 1.37 µM, respectively. Moreover, the Ki on Acetylcholinesterase [3] is 0.00114 µM.
For the compound `O=C1Nc2ccccc2/C1=C\c1cc[n+](Cc2ccccc2[N+](=O)[O-])cc1`, the Ratio IC50 in assay [1] stood at 7.5. Also, the IC50 against Acetylcholinesterase [2] stood at 0.214 µM; against Cholinesterase, 1.6 µM.
In the same order, the values of `COc1ccc(C[n+]2ccc(/C=C3/C(=O)Nc4ccccc43)cc2)cc1` are 11.7, 0.677 µM and 7.9 µM.
The corresponding values for `Cc1cccc(C[n+]2ccc(/C=C3/C(=O)Nc4ccccc43)cc2)c1` are 327, 0.0052 µM and 1.7 µM.
The corresponding values for `O=C1Nc2ccccc2/C1=C\c1cc[n+](Cc2ccccc2)cc1` are 91.3, 0.0471 µM and 4.3 µM.
`O=C1Nc2ccccc2/C1=C\c1cc[n+](Cc2ccc(CCl)cc2)cc1`: the Ratio IC50 in assay [1] is 9.67. The values for the IC50 on Acetylcholinesterase [2] and against Cholinesterase were 0.103 µM and 1 µM, respectively.
In the same order, the values of `O=C1Nc2ccccc2/C1=C\c1cc[n+](Cc2ccc(Cl)cc2Cl)cc1` are 9.7, 0.258 µM and 2.5 µM.
In the same order, the values of `O=C1Nc2ccccc2/C1=C\c1cc[n+](Cc2cccc(Br)c2)cc1` are 169, 0.0103 µM and 1.74 µM.
In the same order, the values of `O=C1Nc2ccccc2/C1=C\c1cc[n+](Cc2ccccc2F)cc1` are 3420, 0.00125 µM and 4.27 µM.
Regarding `O=C1Nc2ccccc2/C1=C\c1cc[n+](Cc2cccc(F)c2)cc1`, in assay [1], the Ratio IC50 stood at 352. Besides, the values for the IC50 at Acetylcholinesterase [2] and on Cholinesterase were 0.0128 µM and 4.5 µM, respectively.
The corresponding values for `O=C1Nc2ccccc2/C1=C\c1cc[n+](Cc2c(Cl)cccc2Cl)cc1` are 88.2, 0.017 µM and 1.5 µM.
In the same order, the values of `O=C1Nc2ccccc2/C1=C\c1cc[n+](Cc2ccc(Br)cc2)cc1` are 2.9, 0.653 µM and 1.9 µM.
In the same order, the values of `O=C1Nc2ccccc2/C1=C\c1cc[n+](Cc2ccc(Cl)c(Cl)c2)cc1` are 112, 0.0294 µM and 3.3 µM.
As for `O=C1Nc2ccccc2/C1=C\c1cc[n+](Cc2ccccc2Br)cc1`, the Ratio IC50 in assay [1] turned out to be 842. Also, the 50% inhibitory concentration (IC50) against Acetylcholinesterase [2] was 0.00146 µM; at Cholinesterase, 1.23 µM.
In the same order, the values of `O=C1Nc2ccccc2/C1=C\c1cc[n+](Cc2ccc(F)cc2)cc1` are 4.58, 0.677 µM and 3.1 µM.
